The results in this text go back to US7390896B2, “Cyclic malonamides as inhibitors of Aβ protein production” (Bristol-Myers Squibb Pharma Corporation, priority 2000, dated 2008).

The compound `CN1C(=O)[C@@H](NC(=O)C2(NC(=O)Cc3cc(F)cc(F)c3)CCCCC2)N=C(c2ccccc2)c2ccccc21` came in with a melting point of 126 to 129 °C.
Consider `CN1C(=O)[C@@H](NC(=O)C2(NC(=O)Cc3cc(F)cc(F)c3)CCCC2)N=C(c2ccccc2)c2ccccc21`, for which the melting point lay within 112 to 117 °C.
Under `CN1C(=O)[C@@H](NC(=O)C2(NC(=O)Cc3cc(F)cc(F)c3)CC2)N=C(c2ccccc2)c2ccccc21` stands 212 to 214 °C.
The result for `CN1C(=O)[C@@H](NC(=O)C2(NC(=O)CCC3CCCC3)CCCCC2)N=C(c2ccccc2)c2ccccc21` reads 88 to 103 °C; that for `CC(C)CCC(=O)NC1(C(=O)NC2N=C(C(C)(C)C)c3ccccc3N(C)C2=O)CCCC1` (stereo not shown) [Example 61, N-((N-[5-(tert-Butyl)-1-methyl-2-oxo(3H-benzo[f]1,4-diazepin-3-yl)]carbamoyl)cyclopentyl)-4-methylpentanamide], 175 to 178 °C; that for `CCCCN1C(=O)C(NC(=O)C2(NC(=O)CCC(C)C)CCCC2)N=C(C(C)(C)C)c2ccccc21` (stereo not shown) [Example 62, N-({N-[5-(tert-Butyl)-1-butyl-2-oxo(3H-benzo[f]1,4-diazepin-3-yl)]carbamoyl}cyclopentyl)-4-methylpentanamide], 175 to 177 °C.
`CCCCC1=NC(NC(=O)C2(NC(=O)CCC(C)C)CCCC2)C(=O)N(Cc2ccccn2)c2ccccc21` (stereo not shown) [Example 63, N-({N-[5-Butyl-2-oxo-1-(2-pyridylmethyl)(3H-benzo[f]1,4-diazepin-3-yl)]carbamoyl}cyclopentyl)-4-methylpentanamide] displayed a melting point of 63 to 67 °C.
